Test results reported in PubChem BioAssay (NCI).
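Dose response: 5 concentrations. Exposure: 48 h. Format: 96-well plates. Endpoint: linear interpolation; highest concentration if not reached. The concentration for 50% growth inhibition is given as GI50. TGI: total growth inhibition.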

Legend:
Assay in all cases: NCI-60 cell line screen, 48 h
MCF7 breast = test system: MCF7 breast
UO-31 renal = test system: UO-31 renal
OVCAR-3 ovarian = test system: OVCAR-3 ovarian
SNB-19 CNS = test system: SNB-19 CNS
RXF 393 renal = test system: RXF 393 renal
HOP-92 NSCLC = test system: HOP-92 NSCLC
MALME-3M melanoma = test system: MALME-3M melanoma
UACC-257 melanoma = test system: UACC-257 melanoma
RPMI-8226 leukemia = test system: RPMI-8226 leukemia
HOP-62 NSCLC = test system: HOP-62 NSCLC
A549 NSCLC = test system: A549 NSCLC
OVCAR-4 ovarian = test system: OVCAR-4 ovarian
DU-145 prostate = test system: DU-145 prostate
OVCAR-5 ovarian = test system: OVCAR-5 ovarian
786-0 renal = test system: 786-0 renal
HCT-15 colon = test system: HCT-15 colon
ACHN renal = test system: ACHN renal
SF-268 CNS = test system: SF-268 CNS
SK-MEL-28 melanoma = test system: SK-MEL-28 melanoma
LOX IMVI melanoma = test system: LOX IMVI melanoma
HCT-116 colon = test system: HCT-116 colon
NCI-H522 lung = test system: NCI-H522 lung
T-47D breast = test system: T-47D breast
EKVX NSCLC = test system: EKVX NSCLC
PC-3 prostate = test system: PC-3 prostate
NCI-H226 lung = test system: NCI-H226 lung
MDA-MB-231 breast = test system: MDA-MB-231 breast
OVCAR-8 ovarian = test system: OVCAR-8 ovarian
HS 578T breast = test system: HS 578T breast
HT29 colon = test system: HT29 colon
NCI-H460 lung = test system: NCI-H460 lung
HCC-2998 colon = test system: HCC-2998 colon
SF-295 CNS = test system: SF-295 CNS
SK-OV-3 ovarian = test system: SK-OV-3 ovarian
SR leukemia = test system: SR leukemia
CCRF-CEM leukemia = test system: CCRF-CEM leukemia
TK-10 renal = test system: TK-10 renal
COLO 205 colon = test system: COLO 205 colon
U251 CNS = test system: U251 CNS
NCI/ADR-RES ovarian = test system: NCI/ADR-RES ovarian
HL-60(TB) leukemia = test system: HL-60(TB) leukemia
M14 melanoma = test system: M14 melanoma
UACC-62 melanoma = test system: UACC-62 melanoma
A498 renal = test system: A498 renal
MOLT-4 leukemia = test system: MOLT-4 leukemia
SK-MEL-2 melanoma = test system: SK-MEL-2 melanoma
KM12 colon = test system: KM12 colon
BT-549 breast = test system: BT-549 breast
SK-MEL-5 melanoma = test system: SK-MEL-5 melanoma
SN12C renal = test system: SN12C renal
MDA-MB-435 = test system: MDA-MB-435
SF-539 CNS = test system: SF-539 CNS
SNB-75 CNS = test system: SNB-75 CNS
CAKI-1 renal = test system: CAKI-1 renal
SW-620 colon = test system: SW-620 colon
K-562 leukemia = test system: K-562 leukemia
IGROV1 ovarian = test system: IGROV1 ovarian

SMILES: COCCOc1ccc2ncc(C#Cc3cncc(C(=O)Nc4ccc(CN5CCN(C)CC5)c(C(F)(F)F)c4)c3)n2n1
- GI50 (MCF7 breast): 0.166 µM
- TGI (MCF7 breast): 0.968 µM
- GI50 (UO-31 renal): 0.622 µM
- TGI (UO-31 renal): 3.19 µM
- GI50 (OVCAR-3 ovarian): 1.09 µM
- TGI (OVCAR-3 ovarian): 7.44 µM
- GI50 (SNB-19 CNS): 3.92 µM
- TGI (SNB-19 CNS): 15 µM
- GI50 (RXF 393 renal): 0.733 µM
- TGI (RXF 393 renal): 1.41 µM
- GI50 (HOP-92 NSCLC): 0.142 µM
- TGI (HOP-92 NSCLC): 0.628 µM
- GI50 (MALME-3M melanoma): 0.22 µM
- TGI (MALME-3M melanoma): 0.868 µM
- GI50 (UACC-257 melanoma): 1.2 µM
- TGI (UACC-257 melanoma): 5.69 µM
- GI50 (RPMI-8226 leukemia): 0.874 µM
- TGI (RPMI-8226 leukemia): 2.59 µM
- GI50 (HOP-62 NSCLC): 0.997 µM
- TGI (HOP-62 NSCLC): 4.37 µM
- GI50 (A549 NSCLC): 0.885 µM
- TGI (A549 NSCLC): 2.61 µM
- GI50 (OVCAR-4 ovarian): 0.84 µM
- TGI (OVCAR-4 ovarian): 8.45 µM
- GI50 (DU-145 prostate): 1.06 µM
- TGI (DU-145 prostate): 4.76 µM
- GI50 (OVCAR-5 ovarian): 0.663 µM
- TGI (OVCAR-5 ovarian): 6.07 µM
- GI50 (786-0 renal): 0.802 µM
- TGI (786-0 renal): 1.64 µM
- GI50 (HCT-15 colon): 0.549 µM
- TGI (HCT-15 colon): 2.51 µM
- GI50 (ACHN renal): 0.364 µM
- TGI (ACHN renal): 2.01 µM
- GI50 (SF-268 CNS): 0.787 µM
- TGI (SF-268 CNS): 2.13 µM
- GI50 (SK-MEL-28 melanoma): 0.676 µM
- TGI (SK-MEL-28 melanoma): 1.72 µM
- GI50 (LOX IMVI melanoma): 0.367 µM
- TGI (LOX IMVI melanoma): 1.04 µM
- GI50 (HCT-116 colon): 0.227 µM
- TGI (HCT-116 colon): 1.02 µM
- GI50 (NCI-H522 lung): 0.62 µM
- TGI (NCI-H522 lung): 1.45 µM
- GI50 (T-47D breast): 2.72 µM
- TGI (T-47D breast): 12.5 µM
- GI50 (EKVX NSCLC): 0.951 µM
- TGI (EKVX NSCLC): 7.75 µM
- GI50 (PC-3 prostate): 1.79 µM
- TGI (PC-3 prostate): 8.29 µM
- GI50 (NCI-H226 lung): 0.271 µM
- TGI (NCI-H226 lung): 1.54 µM
- GI50 (MDA-MB-231 breast): 0.274 µM
- TGI (MDA-MB-231 breast): 1.24 µM
- GI50 (OVCAR-8 ovarian): 0.874 µM
- TGI (OVCAR-8 ovarian): 2.22 µM
- GI50 (HS 578T breast): 0.598 µM
- TGI (HS 578T breast): 2.64 µM
- GI50 (HT29 colon): 0.372 µM
- TGI (HT29 colon): 3.09 µM
- GI50 (NCI-H460 lung): 0.708 µM
- TGI (NCI-H460 lung): 1.47 µM
- GI50 (HCC-2998 colon): 1.18 µM
- TGI (HCC-2998 colon): 7.54 µM
- GI50 (SF-295 CNS): 3.36 µM
- TGI (SF-295 CNS): 12.7 µM
- GI50 (SK-OV-3 ovarian): 2.07 µM
- TGI (SK-OV-3 ovarian): 6.4 µM
- GI50 (SR leukemia): 0.687 µM
- TGI (SR leukemia): 2.48 µM
- GI50 (CCRF-CEM leukemia): 0.7 µM
- TGI (CCRF-CEM leukemia): 4.63 µM
- GI50 (TK-10 renal): 1.59 µM
- TGI (TK-10 renal): 5.86 µM
- GI50 (COLO 205 colon): 0.529 µM
- TGI (COLO 205 colon): 1.54 µM
- GI50 (U251 CNS): 2.19 µM
- TGI (U251 CNS): 10.2 µM
- GI50 (NCI/ADR-RES ovarian): 1.21 µM
- TGI (NCI/ADR-RES ovarian): 3.41 µM
- GI50 (HL-60(TB) leukemia): 0.311 µM
- TGI (HL-60(TB) leukemia): 1.48 µM
- GI50 (M14 melanoma): 0.265 µM
- TGI (M14 melanoma): 1.13 µM
- GI50 (UACC-62 melanoma): 1.5 µM
- TGI (UACC-62 melanoma): 7.66 µM
- GI50 (A498 renal): 1.17 µM
- TGI (A498 renal): 2.25 µM
- GI50 (MOLT-4 leukemia): 0.696 µM
- TGI (MOLT-4 leukemia): 3.73 µM
- GI50 (SK-MEL-2 melanoma): 0.403 µM
- TGI (SK-MEL-2 melanoma): 1.13 µM
- GI50 (KM12 colon): 0.014 µM
- TGI (KM12 colon): 2.72 µM
- GI50 (BT-549 breast): 1.54 µM
- TGI (BT-549 breast): 4.28 µM
- GI50 (SK-MEL-5 melanoma): 1.7 µM
- TGI (SK-MEL-5 melanoma): 7.26 µM
- GI50 (SN12C renal): 0.516 µM
- TGI (SN12C renal): 3.67 µM
- GI50 (MDA-MB-435): 0.421 µM
- TGI (MDA-MB-435): 4.44 µM
- GI50 (SF-539 CNS): 0.209 µM
- TGI (SF-539 CNS): 3.09 µM
- GI50 (SNB-75 CNS): 0.272 µM
- TGI (SNB-75 CNS): 1.26 µM
- GI50 (CAKI-1 renal): 0.484 µM
- TGI (CAKI-1 renal): 2.92 µM
- GI50 (SW-620 colon): 0.402 µM
- TGI (SW-620 colon): 1.35 µM
- GI50 (K-562 leukemia): 0.005 µM
- TGI (K-562 leukemia): 0.937 µM
- GI50 (IGROV1 ovarian): 0.351 µM
- TGI (IGROV1 ovarian): 2.35 µM
